This note sets out measurements from US7335672B2, “Vanilloid receptor ligands and their use in treatments” (Amgen Inc., priority 2004, dated 2008).

Where only a bound is given, the exact number is not on record here.

On to `CC(=O)Nc1nc2c(Oc3cc(-c4ccc(C(F)(F)F)cc4)nc(-c4cccnc4)n3)cccc2s1` [Example 9], for which the melting point (as a rule, the temperature, or range, at which the solid turns liquid) was in the range of 268 to 270 °C.

`CC(=O)Nc1nc2c(Oc3cc(-c4ccc(C(F)(F)F)cc4)nc(N4CCN(C(=O)OC(C)(C)C)CC4)n3)cccc2s1` [Example 34, tert-Butyl 4-(4-(2-acetamidobenzo[d]thiazol-4-yloxy)-6-(4-(trifluoromethyl)phenyl)pyrimidin-2-yl)piperazine-1-carboxylate]: the melting point was found to be 211 °C.

As for `CC(=O)Nc1nc2c(Oc3cc(-c4ccc(C(F)(F)F)cc4)nc(N4CCCC(O)C4)n3)cccc2s1` (centres unmarked) [Example 39], the melting point was determined as 198 °C.

In turn, `CC(=O)Nc1nc2c(Oc3cc(-c4ccc(C(F)(F)F)cc4)nc(N4CCC(C(=O)O)CC4)n3)cccc2s1` [Example 42, 1-{4-{[2-(acetylamino)-1,3-benzothiazol-4-yl]oxy}-6-[4-(trifluoromethyl)phenyl]pyrimidin-2-yl}piperidine-4-carboxylic acid] returned a melting point of 277 to 278 °C.

In turn, `CC(=O)Nc1nc2c(Oc3cc(-c4ccc(C(F)(F)F)cc4)nc(NCc4cccnc4)n3)cccc2s1` [Example 53] had a melting point of 240 °C.

`CC(=O)Nc1nc2c(Oc3cc(-c4ccc(C(F)(F)F)cc4)nc(NCC4CCCN(C(=O)OC(C)(C)C)C4)n3)cccc2s1` (centres unmarked) [Example 70] gave a melting point of 128 °C.

With `CC(=O)Nc1nc2c(Oc3cc(-c4ccc(C(F)(F)F)cc4)nc(NC[C@@H]4CCCN4C(=O)OC(C)(C)C)n3)cccc2s1` [Example 71, tert-butyl (2S)-2-[({4-{[2-(acetylamino)-1,3-benzothiazol-4-yl]oxy}-6-[4-(trifluoromethyl)phenyl]pyrimidin-2-yl}amino)methyl]pyrrolidine-1-carboxylate], the melting point is 132 °C.

The compound `COCC(C)Nc1nc(Oc2cccc3[nH]c(=O)c(N)nc23)cc(-c2ccc(C(F)(F)F)cc2)n1` (centres unmarked) [Example 109] gave a melting point of 241 °C.

`CC(Nc1nc(Oc2cccc3[nH]c(=O)c(N)nc23)cc(-c2ccc(C(F)(F)F)cc2)n1)c1ccccn1` (centres unmarked) [Example 113] returned a melting point of 289 °C.

Consider `COC[C@H](C)Nc1nc(Oc2cccc3[nH]c(=O)c(N)nc23)cc(-c2ccc(C(F)(F)F)cc2)n1` [Example 114], for which the melting point came to 243 °C.

As for `CS(=O)(=O)Nc1cccc(CNc2nc(Oc3cccc4[nH]c(=O)c(N)nc34)cc(-c3ccc(C(F)(F)F)cc3)n2)c1` [Example 116, N-{3-[({4-[(3-amino-2-oxo-1,2-dihydroquinoxalin-5-yl)oxy]-6-[4-(trifluoromethyl)phenyl]pyrimidin-2-yl}amino)methyl]phenyl}methanesulfonamide], the melting point is above 300 °C.

Compound `CS(=O)(=O)N1CCN(c2nc(Oc3cccc4[nH]c(=O)c(N)nc34)cc(-c3ccc(C(F)(F)F)cc3)n2)CC1` [Example 117, 3-amino-5-({2-[4-(methylsulfonyl)piperazin-1-yl]-6-[4-(trifluoromethyl)phenyl]pyrimidin-4-yl}oxy)quinoxalin-2(1H)-one] came in with a melting point above 300 °C.

`CC(C)CN1CCCC[C@H]1CNc1nc(Oc2cccc3[nH]c(=O)c(N)nc23)cc(-c2ccc(C(F)(F)F)cc2)n1` [Example 120, (S)-3-Amino-5-(2-((1-isobutylpiperidin-2-yl)methylamino)-6-(4-(trifluoromethyl)phenyl)pyrimidin-4-yloxy)quinoxalin-2(1H)-one] registered a melting point of 228 °C.

As for `CC(C)CN1CCCC[C@@H]1CNc1nc(Oc2cccc3[nH]c(=O)c(N)nc23)cc(-c2ccc(C(F)(F)F)cc2)n1` [Example 121, (R)-3-Amino-5-(2-((1-isobutylpiperidin-2-yl)methylamino)-6-(4-(trifluoromethyl)phenyl)pyrimidin-4-yloxy)quinoxalin-2(1H)-one], the melting point amounted to 229 °C.
